Columns and labels:
[1] = system: F1 male hybrid (129×C57) mice; test: Midshaft femur cortical thickness by microCT in treated mice; format: in vivo; settings: 25 days; for increase in midshaft femur cortical thickness: second study
Protocol: The compound was administered in the animals' diet. Four groups of mice were used: control (N=12); 25 mg/kg compound (N=9); 83 mg/kg compound (N=9); and an additional group wherein Li2CO3 was administered in the diet (0.1%) (N=9).
Midshaft femur cortical thickness was measured using a Scanco μCT40. […] For the Li2CO3 group, a decrease in cortical bone thickness of 2% (p=0.90) was observed. […]
Midshaft femur cortical thickness was measured by microCT (Scanco μCT40). […]

[2] = target: T1, human notum pectinacetyltransferase (Homo sapiens, UniProt Q6P988); test: Binding assay (OPTS esterase substrate, fluorimetric); format: biochemical; settings: OPTS substrate 5 μM
T1 construct: made in house; conditioned medium used
T1 sequence (Q6P988 20-496): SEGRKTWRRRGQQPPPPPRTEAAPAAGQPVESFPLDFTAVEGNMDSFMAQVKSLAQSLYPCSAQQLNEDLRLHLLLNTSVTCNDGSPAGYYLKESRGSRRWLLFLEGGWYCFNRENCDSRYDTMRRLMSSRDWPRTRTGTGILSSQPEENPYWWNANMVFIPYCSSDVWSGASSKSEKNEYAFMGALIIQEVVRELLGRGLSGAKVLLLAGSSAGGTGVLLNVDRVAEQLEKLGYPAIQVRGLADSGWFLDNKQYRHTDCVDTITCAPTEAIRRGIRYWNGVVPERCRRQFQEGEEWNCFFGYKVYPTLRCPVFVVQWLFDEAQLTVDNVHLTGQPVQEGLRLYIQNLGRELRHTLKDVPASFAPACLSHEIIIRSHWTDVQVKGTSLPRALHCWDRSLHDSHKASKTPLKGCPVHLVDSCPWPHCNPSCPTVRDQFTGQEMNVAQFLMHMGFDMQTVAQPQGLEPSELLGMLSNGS
Protocol: Plasmid containing human notum pectinacetyltransferase in pcDNA3.1(+) vector was transfected into HEK293 cells and clones were selecting by growing in presence of 400 ug/mL of G418. Condition media from these cells was used for the assay.

[3] = target: T1, human notum pectinacetyltransferase; test: Reporter assay (CellSensor LEF/TCF-bla FreeStyle 293F cells, Wnt3a and notum conditioned media); format: cell-based
Protocol: Plasmid containing human notum pectinacetyltransferase in pcDNA3.1(+) vector was transfected into HEK293 cells and clones were selecting by growing in presence of 400 ug/mL of G418. […] L cells overexpressing and secreting Wnt3a into the conditioned media were purchased from ATCC.
The assay protocol was as follows. […] The cell growth medium consisted of DMEM with 10% Dialyzed FBS, 5 μg/ml Blasticidin (Invitrogen, R210-01), 0.1 mM NEAA, 25 mM HEPES and 1×GPS. Cells were then trypsinized by first rinsing with PBS, followed by addition of 5 mL of trypsin and incubation of plates at room temperature for two minutes. A total of 10 mL of assay media (Opti-MEM, plus 0.5% dialyzed FBS, 0.1 mM NEAA, 1 mM sodium pyruvate, 10 mM HEPES, 1×GPS) was then added per 15 cm plate. Cells were counted and suspended at 0.75 million cells per mL. […] After incubation of cells at 37° C. for 3 hours, 10 μL of 30 mM LiCl in assay medium was added per well, followed by incubation at 37° C. for another 3 hours. […] Ten μL of the Wnt3a/notum pentinacetyltransferase mixture was then transferred from Greiner plates to each well of the 384-well plates containing the CellSensor cells. After incubation of cells overnight at 37° C., reactions were developed by addition of […] of 1×CCF4 (Invitrogen, Catalogue number K1085) to each well, covering the entire 384-well plate, and gentle rocking in the dark at room temperature for 3 hours.

Molecule	IC50 [2] [nM]	EC50 [3] [nM]	other results
Cc1sc2ncnc(SCC(=O)O)c2c1C [2-((5,6-dimethylthieno[2,3-d]pyrimidin-4-yl)thio)acetic acid]			increase in cortical bone thickness (midshaft femur) compared to control ([1]; first study, 25 mg/kg in diet, starting at 10.7 weeks of age, p=0.04): 9%; increase in cortical bone thickness (midshaft femur) compared to control ([1]; first study, 83 mg/kg in diet, starting at 10.7 weeks of age, p=0.07): 8%; increase in midshaft femur cortical thickness ([1]; 8 mg/kg in diet, starting at 10.7 weeks of age, p=0.19): 4%; increase in midshaft femur cortical thickness ([1]; 24 mg/kg in diet, starting at 10.7 weeks of age, p=0.05): 6%
CCNC(=O)CSc1ncnc2c(C)c(Cl)sc12 [2-((6-chloro-7-methylthieno[3,2-d]pyrimidin-4-yl)thio)-N-ethylacetamide]	< 25	< 1000	
Cc1cc(NC(=O)CSc2ncnc3sc(C)c(C)c23)no1 [2-((5,6-dimethylthieno[2,3-d]pyrimidin-4-yl)thio)-N-(5-methylisoxazol-3-yl)acetamide]	< 25	< 1000	
O=C(O)CSc1ncnc2c(C3CC3)c(C(F)(F)F)sc12 [2-(7-cyclopropyl-6-(trifluoromethyl)thieno[3,2-d]pyrimidin-4-yl)thio)acetic acid]	< 25	< 1000	
Cc1sc2ncnc(SCC(=O)NCCc3cn[nH]c3)c2c1Cl [N-(2-(1H-pyrazol-4-yl)ethyl)-2-((5-chloro-6-methylthieno[2,3-d]pyrimidin-4-yl)thio)acetamide]	< 50	< 1000	
O=C([O-])[O-].[Li+].[Li+] [Li2CO3, reference compound]			decrease in cortical bone thickness (midshaft femur) compared to control ([1]; first study, 0.1% in diet, p=0.90): 2%
Cc1sc2ncnc(SCC(N)=O)c2c1C [2-((5,6-dimethylthieno[2,3-d]pyrimidin-4-yl)thio)acetamide]	< 25	< 1000	
O=C(O)CSc1ncnc2c(C3CC3)c(Cl)sc12 [2-((6-chloro-7-cyclopropylthieno[3,2-d]pyrimidin-4-yl)thio)acetic acid]			increase in cortical bone thickness (midshaft femur) compared to control ([1]; 3 mg/kg daily oral gavage, starting at 8.7 weeks of age, p=0.003): 7%; increase in cortical bone thickness (midshaft femur) compared to control ([1]; 10 mg/kg daily oral gavage, starting at 8.7 weeks of age, p<0.001): 10%; increase in cortical bone thickness (midshaft femur) compared to control ([1]; 30 mg/kg daily oral gavage, starting at 8.7 weeks of age, p<0.001): 13%
Cc1c(Cl)sc2c(SCC(=O)NCC#N)ncnc12 [2-((6-chloro-7-methylthieno[3,2-d]pyrimidin-4-yl)thio)-N-(cyanomethyl)acetamide]	< 25	< 1000	
Cc1sc2ncnc(SCC(=O)O)c2c1Br [2-((5-bromo-6-methylthieno[2,3-d]pyrimidin-4-yl)thio)acetic acid]	< 25	< 1000	
CCCOC(=O)CSc1ncnc2sc(C)c(C)c12 [propyl 2-((5,6-dimethylthieno[2,3-d]pyrimidin-4-yl)thio)acetate]	< 25	< 1000	
Cc1sc2ncnc(SCC(=O)O)c2c1C1CC1 [2-((5-cyclopropyl-6-methylthieno[2,3-d]pyrimidin-4-yl)thio)acetic acid]	< 25	< 5000	
Cc1sc2ncnc(SCC(=O)NC#N)c2c1C [N-cyano-2-((5,6-dimethylthieno[2,3-d]pyrimidin-4-yl)thio)acetamide]	< 25	< 1000	
Cc1sc2ncnc(SCC(=O)NCC#N)c2c1Cl [2-((5-chloro-6-methylthieno[2,3-d]pyrimidin-4-yl)thio)-N-(cyanomethyl)acetamide]	< 25	< 1000	
CNC(=O)CSc1ncnc2sc(C)c(C)c12 [2-((5,6-dimethylthieno[2,3-d]pyrimidin-4-yl)thio)-N-methylacetamide]	< 25	< 1000	
CCc1sc2ncnc(SCC(=O)O)c2c1Cl [2-((5-chloro-6-ethylthieno[2,3-d]pyrimidin-4-yl)thio)acetic acid]	< 25	< 1000	

Molecule	IC50 [2] [nM]	EC50 [3] [nM]	other results
CON(C)C(=O)CSc1ncnc2sc(C)c(C)c12 [2-((5,6-dimethylthieno[2,3-d]pyrimidin-4-yl)thio)-N-methoxy-N-methylacetamide]	< 25	< 1000	
Cc1csc2c(SCC(=O)O)ncnc12 [2-((7-methylthieno[3,2-d]pyrimidin-4-yl)thio)acetic acid]	< 250	< 15000	
2-(7-cyclopropyl-6-(trifluoromethyl)thieno[3,2-d]pyrimidin-4-yl)thio)acetate	< 25	< 1000	
Cc1sc2ncnc(SCC(=O)NCCC#N)c2c1Cl [2-((5-chloro-6-methylthieno[2,3-d]pyrimidin-4-yl)thio)-N-(2-cyanoethyl)acetamide]	< 25	< 1000	
Cc1c(Br)sc2ncnc(SCC(=O)O)c12 [2-((6-bromo-5-methylthieno[2,3-d]pyrimidin-4-yl)thio)acetic acid]	< 25	< 1000	
Cc1sc2ncnc(SCC(=O)NOC3CCCCO3)c2c1C (stereo not drawn) [2-((5,6-dimethylthieno[2,3-d]pyrimidin-4-yl)thio)-N-((tetrahydro-2H-pyran-2-yl)oxy)acetamide]	< 25	< 1000	
COC(=O)CSc1ncnc2c(C)c(Cl)sc12 [methyl 2-((6-chloro-7-methylthieno[3,2-d]pyrimidin-4-yl)thio)acetate]	< 25	< 1000	
Cc1sc2ncnc(SCC(=O)OC(C)C)c2c1C [isopropyl 2-((5,6-dimethylthieno[2,3-d]pyrimidin-4-yl)thio)acetate]	< 25	< 1000	
CCCc1sc2ncnc(SCC(=O)O)c2c1Cl [2-((5-chloro-6-propylthieno[2,3-d]pyrimidin-4-yl)thio)acetic acid]	< 25	< 1000	
Cc1sc2ncnc(SCC(=O)NCc3ccco3)c2c1Cl [2-((5-chloro-6-methylthieno[2,3-d]pyrimidin-4-yl)thio)-N-(furan-2-ylmethyl)acetamide]	< 25	< 1000	
Cc1sc2ncnc(SCC(=O)NO)c2c1C [2-((5,6-dimethylthieno[2,3-d]pyrimidin-4-yl)thio)-N-hydroxyacetamide]	< 25	< 1000	
CCc1sc2ncnc(SCC(=O)O)c2c1Br [2-((5-bromo-6-ethylthieno[2,3-d]pyrimidin-4-yl)thio)acetic acid]	< 25	< 1000	
Cc1sc2ncnc(SCC(=O)NCCN3CCOCC3)c2c1Cl [2-((5-chloro-6-methylthieno[2,3-d]pyrimidin-4-yl)thio)-N-(2-morpholinoethyl)acetamide]	< 25	< 1000	
Cc1sc2ncnc(SCC(=O)N(C)C)c2c1Cl [2-((5-chloro-6-methylthieno[2,3-d]pyrimidin-4-yl)thio)-N,N-dimethylacetamide]	< 25	< 1000	
Cc1sc2ncnc(SCC(=O)OC(C)C)c2c1Cl [isopropyl 2-((5-chloro-6-methylthieno[2,3-d]pyrimidin-4-yl)thio)acetate]	< 25	< 1000	
Cc1cc2c(SCC(=O)O)ncnc2s1 [2-((6-methylthieno[2,3-d]pyrimidin-4-yl)thio)acetic acid]	< 250	< 10000	
